# Values quoted from earlier work as cited in US20200188405A1, “COMPOSITION FOR TREATING OCULAR DISORDERS SUCH AS MACULAR DEGENERATION, RETINOPATHY AND GLAUCOMA” (RHEOSTASIS, LLC, priority 2017, published 2020).
# Structures can show the parent of a compound that is named as a salt.
# Test system: β (beta) blocker
# Settings: ocular applications
smiles,measurement,value
CC(C)(C)NC[C@H](O)COc1nsnc1N1CCOCC1 [Timolol Maleate],potency as β blocker relative to propranolol,5-10 times
